The source of these data is patent US12528759B2, “Crystalline forms of bempedoic acid” (SYNTHON B.V., priority 2019, dated 2026).

Data set [1] in a line: Flowability and stickiness of the solid form. Format: physicochemical.
The nature of data set [2]: Stability of the crystalline form when dried in oven. Format: physicochemical. The settings on record: e.g. 40° C.
A further data set in a line: Solubility. It counts as physicochemical.
A short description of data set [3]: Water content of the crystalline form under extreme high humidity. Format: physicochemical.
For data set [4] the following is noted: prior-art solid form of WO2018218147; cited from earlier work.

Read-outs that look alike come from different tables or passages of the source.

Consider `CC(C)(CCCCCC(O)CCCCCC(C)(C)C(=O)O)C(=O)O` [Form A, 8-Hydroxy-2,2,14,14-tetramethylpentadecanedioic acid], for which, in data set [1], the flowability result is given as “good” and the stickiness entry was “not sticky”.
Consider `CC(C)(CCCCCC(O)CCCCCC(C)(C)C(=O)O)C(=O)O` [Form B, 8-Hydroxy-2,2,14,14-tetramethylpentadecanedioic acid], for which the “stability when dried in oven” value in data set [2] was “stable”. Moreover, in the data set “Solubility”, the solubility entry was “good”. The “water content change when subjected to extreme high level of humidity” value in data set [3] (70-90% relative humidity) is reported as “did not change”. In addition, in data set [3] (humidity above 70% relative humidity), the “water absorption or loss when subjected to extreme conditions” value is reported as “does not absorb or lose water”.
For the compound `CC(C)(CCCCCC(O)CCCCCC(C)(C)C(=O)O)C(=O)O` [solid form of Bempedoic acid, 8-Hydroxy-2,2,14,14-tetramethylpentadecanedioic acid], in data set [4], the flow characteristics entry is reported as “poor” and the stickiness result is recorded as “very sticky”.
